Assay results published in ChEMBL document CHEMBL3301472, “MMV Malaria Box HIV and cytotoxicity screening”.

Tests used:
[1] = test system: Human immunodeficiency virus 1; assay: MMV: HIV CCR5-tropic env JRFL pseudovirus assay produces luciferase signal in lieu of replicating viral particles Day 3 pi, U87-CD4-CCR5, % inhibition at 5 mM compound; type: functional; design: dose or concentration left out as unconfirmed; details: Human immunodeficiency virus 1, JR-FL, U87/CD4/CCR5, 72 h
[2] = MMV: MTT Cytotoxicity Assay Day 7 pi of Assay #6 (compound washed out Day 1 pi), U87-CD4-CCR5 cells, % cell death @ 5mM compound; type: toxicity, cell-based; details: human, u87-cd4-ccr5, 5000 µM
[3] = MMV: MTT Cytotoxicity Assay Day 7 pi of Assay #7 (compound washed out Day 1 pi), U87-CD4-CXCR4 cells, % cell death @ 5mM compound; type: toxicity, cell-based; details: human, u87-cd4-cxcr4, 5000 µM
[4] = test system: Human immunodeficiency virus 1; assay: MMV: HIV CXCR4-tropic env HxB2 pseudovirus assay produces luciferase signal in lieu of replicating viral particles Day 3 pi, U87-CD4-CXCR4, % inhibition at 5 mM compound; type: functional; design: dose or concentration left out as unconfirmed; details: Human immunodeficiency virus 1, HxB2, U87.CD4.CXCR4, 72 h
[5] = MMV: MTT Cytotoxicity Assay Day 7 pi of Assay #10 (NO washout), U87-CD4-CCR5 cells, % cell death @ 5mM compound; type: toxicity, cell-based; details: human, u87-cd4-ccr5, 5000 µM
[6] = MMV: MTT Cytotoxicity Assay Day 3 pi, U87-CD4-CCR5 cells, % cell death @ 5mM compound; type: toxicity, cell-based; details: human, u87-cd4-ccr5, 5000 µM
[7] = MMV: MTT Cytotoxicity Assay Day 7 pi of Assay #11 (NO washout), U87-CD4-CXCR4 cells, % cell death @ 5mM compound; type: toxicity, cell-based; details: human, u87-cd4-cxcr4, 5000 µM
[8] = MMV: MTT Cytotoxicity Assay Day 3 pi, U87-CD4-CXCR4 cells, % cell death @ 5mM compound; type: toxicity, cell-based; details: human, u87-cd4-cxcr4, 5000 µM
[9] = test system: Human immunodeficiency virus 1; assay: MMV: HIV JRFL CCR5-tropic replication-competent virus, NO washout, P24 ELISA Day 7 pi, U87-CD4-CCR5, % inhibition at 5 mM compound; type: functional; design: dose or concentration left out as unconfirmed; details: Human immunodeficiency virus 1, JR-FL, U87/CD4/CCR5, 168 h
[10] = test system: Human immunodeficiency virus 1; assay: MMV: HIV JRFL CCR5-tropic replication-competent virus, virus & compound washed out Day 1 pi, P24 ELISA Day 7 pi, U87-CD4-CCR5, % inhibition at 5 mM compound; type: functional; design: dose or concentration left out as unconfirmed; details: Human immunodeficiency virus 1, JR-FL
[11] = test system: Human immunodeficiency virus 1; assay: MMV: HIV NL4-3 CXCR4-tropic replication-competent virus, virus & compound washed out Day 1 pi, P24 ELISA Day 7 pi, U87-CD4-CXCR4, % inhibition at 5 mM compound; type: functional; design: dose or concentration left out as unconfirmed; details: Human immunodeficiency virus 1, NL4-3, U87.CD4.CXCR4
[12] = test system: Human immunodeficiency virus 1; assay: MMV: HIV NL4-3 CXCR4-tropic replication-competent virus, NO washout, P24 ELISA Day 7 pi, U87-CD4-CXCR4, % inhibition at 5 mM compound; type: functional; design: dose or concentration left out as unconfirmed; details: Human immunodeficiency virus 1, NL4-3, U87.CD4.CXCR4, 168 h
[13] = test system: Human immunodeficiency virus 1; assay: MMV: HIV CXCR4-tropic env NL4-3 pseudovirus assay produces luciferase signal in lieu of replicating viral particles Day 3 pi, U87-CD4-CXCR4, % inhibition at 5 mM compound; type: functional; design: dose or concentration left out as unconfirmed; details: Human immunodeficiency virus 1, NL4-3, U87.CD4.CXCR4, 72 h

CCCCCCOC(=O)C1=C(C)NC(=O)NC1c1ccccc1F (centres undefined)
inhibition [1]: -2%
% Cell Death [2]: -10
% Cell Death [3]: -33
inhibition [4]: 3%
% Cell Death [5]: 40
% Cell Death [6]: 16
% Cell Death [7]: -34
% Cell Death [8]: 29

Cc1ccc(C(=O)c2oc3ccc4c(C)cc(=O)oc4c3c2C)cc1
inhibition [9]: 8%
% Cell Death [2]: 7
% Cell Death [3]: 22
% Cell Death [5]: 83
% Cell Death [6]: 59
% Cell Death [7]: 92
% Cell Death [8]: 94

COc1ccc(-c2nonc2NC(=O)c2cccc(Cl)c2)cc1OC
inhibition [1]: -2%
% Cell Death [2]: 13
% Cell Death [3]: 49
% Cell Death [5]: 100
% Cell Death [6]: 61
% Cell Death [7]: 97
% Cell Death [8]: 45

CCc1c(C)c(=N)c2ccccc2n1C.I
inhibition [9]: 8%
% Cell Death [2]: 30
% Cell Death [3]: -17
% Cell Death [5]: -10
% Cell Death [6]: 22
% Cell Death [7]: -5
% Cell Death [8]: 100

COc1ccc(C(=O)Nc2nonc2-c2ccc(OC)c(OC)c2)cc1Cl
inhibition [1]: 5%
% Cell Death [2]: 13
% Cell Death [3]: 53
inhibition [4]: 9%
% Cell Death [5]: 100
% Cell Death [6]: 64
% Cell Death [7]: 67
% Cell Death [8]: 47
inhibition [10]: 6%

Br.CCN(CC)S(=O)(=O)c1ccc(-c2csc(Nc3ccc(C)c(C)c3)n2)cc1
inhibition [1]: -2%
% Cell Death [2]: 20
% Cell Death [3]: -19
inhibition [11]: 3%
% Cell Death [5]: 26
% Cell Death [6]: -17
% Cell Death [7]: 11
% Cell Death [8]: 29

CC(=O)Nc1nnc(SCc2c(C)cc(C(C)(C)C)cc2C)s1
inhibition [1]: 8%
% Cell Death [2]: 3
% Cell Death [3]: 10
% Cell Death [5]: 3
% Cell Death [6]: 14
% Cell Death [7]: 6
% Cell Death [8]: 27

Cc1sc(NC(=O)c2ccco2)c(C(c2cccnc2)N2CCC(Cc3ccccc3)CC2)c1C (centres undefined)
inhibition [1]: 8%
% Cell Death [2]: 81
% Cell Death [3]: 94
% Cell Death [5]: 107
% Cell Death [6]: 110
% Cell Death [7]: 104
% Cell Death [8]: 88

O=C(NC1CCN(Cc2ccccc2)CC1)c1cc(-c2cccnc2)nc2ccc(Cl)cc12
inhibition [1]: 8%
% Cell Death [2]: 11
% Cell Death [3]: -10
inhibition [4]: 8%
% Cell Death [5]: 43
% Cell Death [6]: -9
% Cell Death [7]: 40
% Cell Death [8]: 34

CCN1CCN(c2cc(C)c3cc(NC(=O)c4ccc(OC)c(OC)c4)ccc3n2)CC1
inhibition [9]: -2%
% Cell Death [2]: 93
% Cell Death [3]: 61
% Cell Death [5]: 43
% Cell Death [6]: 95
% Cell Death [7]: 55
% Cell Death [8]: 36

COc1ccc(C(=O)Nc2ccc(Cl)cc2C(=O)Nc2ccncc2)cc1
inhibition [9]: 0%
% Cell Death [2]: -7
% Cell Death [3]: -11
% Cell Death [5]: 0
% Cell Death [6]: 14
% Cell Death [7]: 33
% Cell Death [8]: 22

c1ccc(CNc2nc(Nc3ccccc3)nc3ccccc23)cc1
inhibition [1]: 6%
% Cell Death [2]: -8
% Cell Death [3]: -7
inhibition [4]: 9%
% Cell Death [5]: 27
% Cell Death [6]: 36
% Cell Death [7]: 0
inhibition [12]: -2%
% Cell Death [8]: 53

COc1cc(OC)c(N(C)C(=O)c2cc3c(s2)-c2ccccc2S(=O)(=O)C3)cc1Cl
% Cell Death [2]: 22
% Cell Death [3]: -18
inhibition [11]: 7%
% Cell Death [5]: -2
% Cell Death [6]: 28
% Cell Death [7]: -30
inhibition [12]: 2%
% Cell Death [8]: 33

Cc1cc(C)c2c(c1)OCN(Cc1ccccc1Cl)C2
inhibition [9]: -2%
% Cell Death [2]: 20
% Cell Death [3]: -14
% Cell Death [5]: -6
% Cell Death [6]: -12
% Cell Death [7]: 33
% Cell Death [8]: 31

Nc1ccc(-c2nc3cc(Oc4ccc(Oc5ccc6[nH]c(-c7ccc(N)cc7)nc6c5)cc4)ccc3[nH]2)cc1
inhibition [1]: 4%
% Cell Death [2]: 12
% Cell Death [3]: 68
% Cell Death [5]: 113
% Cell Death [6]: 21
% Cell Death [7]: 21
% Cell Death [8]: 51

Cc1cc(N(C)C)nc(Nc2ccc(NC(=O)Nc3ccccc3)cc2)n1
inhibition [9]: 4%
% Cell Death [2]: -5
% Cell Death [3]: -7
% Cell Death [5]: 18
% Cell Death [6]: 12
% Cell Death [7]: -30
% Cell Death [8]: 40

CCOC(=O)c1cnc2ccc(OC)cc2c1Nc1ccc(N2CCN(C)CC2)cc1
inhibition [1]: -2%
% Cell Death [2]: 5
% Cell Death [3]: 17
inhibition [4]: -1%
inhibition [11]: 8%
% Cell Death [5]: 11
inhibition [13]: 6%
% Cell Death [6]: -13
% Cell Death [7]: -14
% Cell Death [8]: 37

COc1cccc(C2(C)Nc3ccccc3-c3nc4ccccc4n32)c1 (centres undefined)
inhibition [1]: 9%
% Cell Death [2]: 37
% Cell Death [3]: 25
% Cell Death [5]: 35
% Cell Death [6]: -22
% Cell Death [7]: 92
% Cell Death [8]: 28

Cc1ccccc1OCCSc1nc2ccc(NC(=O)c3ccccc3)cc2s1
inhibition [1]: 10%
% Cell Death [2]: 31
% Cell Death [3]: 1
% Cell Death [5]: 106
% Cell Death [6]: 96
% Cell Death [7]: 100
% Cell Death [8]: 36

Cc1ccc(OCCCCCCNCCO)c(C)c1
inhibition [1]: -2%
% Cell Death [2]: 30
% Cell Death [3]: -10
% Cell Death [5]: 15
% Cell Death [6]: -3
% Cell Death [7]: -10
% Cell Death [8]: 28

CCCc1cc(O)c2c3c(c(=O)oc2c1)CN(C)CC3
% Cell Death [2]: -8
% Cell Death [3]: 57
% Cell Death [5]: 45
inhibition [13]: 4%
% Cell Death [6]: 22
% Cell Death [7]: 40
inhibition [12]: 6%
% Cell Death [8]: 44
